The text below walks through data of PMC9057948, “Identification, isolation, structural characterization, in silico toxicity prediction and in vitro cytotoxicity assay of simeprevir acidic and oxidative degradation products” (RSC Advances, 2020).

Data set [1] has as its system Human Skin Fibroblast (HSF) cell line. Briefly: SRB cytotoxicity (cell viability) assay. The format is cell-based. Particulars: Homo sapiens; HSF cells, SRB assay, 72 h exposure, 0.01–100 μM. The protocol:
(§1) Human Skin Fibroblast cell line was obtained from Nawah Scientific Inc., (Mokatam, Cairo, Egypt). Cells were maintained in DMEM media supplemented with […] of streptomycin, 100 units per mL of penicillin and 10% of heat-inactivated fetal bovine serum in humidified, 5% (v/v) CO2 atmosphere at 37 °C.
(§2) Absorbance was measured in the cytotoxicity assay at 540 nm on a BMG LABTECH®-FLUOstar Omega microplate reader (Ortenberg, Germany).
(§3) Cell viability was assessed by SRB assay.[25] Aliquots of 100 μL cell suspension (5 × 10^3 cells) were in 96-well plates and incubated in complete media for 24 h. Cells were treated with another aliquot of 100 μL media containing (DP 1, DP 2, DP 3, DP 4, DP 5 and Doxorubicin as positive control) at various concentrations ranging from (0.01, 0.1, 1, 10, 100 μm). After 72 h of drug exposure, cells were fixed by replacing media with 150 μL of 10% TCA and incubated at 4 °C for 1 h. The TCA solution was removed, and the cells were washed 5 times with distilled water. Aliquots of 70 μL SRB solution (0.4% w/v) were added and incubated in a dark place at room temperature for 10 min. Plates were washed 3 times with 1% acetic acid and allowed to air-dry overnight. Then, 150 μL of Tris (10 mM) was added to dissolve protein-bound SRB stain; the absorbance was measured at 540 nm using microplate reader. The percentage of cell viability was calculated by using the following formula:[26] [drawing 1]
(§4) Cytotoxicity assay was carried out to confirm the in silico toxicity prediction study results. As an in vitro method to monitor the potential toxicity and/or safety of simeprevir and its degradation products (DP 1, DP 2, DP 3, DP 4 and DP 5), against Human Skin Fibroblast (HSF) cell line. SRB assay was used to assess the effect of these compounds on the viability and proliferation of HSF cell line (Table S1 ^†), in addition to taking images using the optical microscope to register any change on the tested cells.
(§5) The percentage of cell viability was measured at five different concentrations (0.01, 0.1, 1, 10 and 100 μM) in comparison with doxorubicin as a standard drug (positive control) which is monitored at the same concentration range after incubation for 72 h period.
(Sulforhodamine B stains cellular protein and so reports cell mass.)

The nature of data set [2]: SRB cytotoxicity (cell viability) assay. It is filed as cell-based, Human. Particulars: human, Human Skin Fibroblast (HSF) cells; for viability at 72 h, 0.01 µM / viability at 72 h, 0.1 µM / viability at 72 h, 1 µM / viability at 72 h, 10 µM: n = 3. How it is done: as §1, §2, §3, §4, §5
Data set [3] concerns Human Skin Fibroblast (HSF) cell line. Briefly: Optical microscope stained images of the cytotoxicity assay. It is filed as cell-based. Particulars: HSF cells, magnification 200×. The protocol: as §4
The optical microscope stained images were recorded as shown in Fig. 7 comparing the cytotoxic effect of the five degradation products with that of doxorubicin at a concentration of 100 μM. […] This proves that simeprevir acidic and oxidative degradation products are non-toxic up to 100 μM (IC50 > 100 μM).

Data set [4] can be described thus: Forced degradation study (stress degradation, HPLC). It is filed as physicochemical. The protocol: The forced degradation studies were carried out on 1 mg mL^−1 in methanol. Acidic hydrolysis was performed by treating the drug with 0.5 M hydrochloric acid for 5 hours, while the basic hydrolysis conditions were 1 M sodium hydroxide for 5 hours. In both cases, the reaction was immersed in a boiling water bath maintained at 100 °C.
Oxidative degradation was performed by treating the drug with 3% hydrogen peroxide for 5 hours and the reaction was immersed in a boiling water bath maintained at 100 °C. In the thermal degradation, simeprevir was subjected to high temperature by placing the drug in a thermostatic oven at 100 °C.
The samples from the acidic and basic hydrolysis stress tests were neutralized and diluted with methanol to achieve final assay concentrations of 100 μg mL^−1. The final sample solutions were filtered through a 0.45 μm membrane before HPLC analysis. All sample solutions were stored at 4 °C in a refrigerator to avoid degradation.
Although, previous reports by Attia et al.[18] and Mohammed et al.[27] uses different basic hydrolysis conditions; 0.1 N NaOH for 3 hours at room temperature and 1 M NaOH for 2 hours at 60 °C; respectively. […] In our report, no peak was observed after HPLC injection of the alkaline degradation samples which is confirmed using TLC and Flash Chromatography; in which only drug peak was detected.

The conditions of data set [5]: no reference given; cited from earlier work.
The conditions of data set [6]: cited from earlier work.
Where [7] appears, read: 72 h, n = 3, read-out: Viability % (Mean).

Like-named read-outs stand apart in the source and are kept apart here.

For `COc1ccc2c(OC3CC4C(=O)NC5CC5C=CCCCCN(C)C(=O)C4C3)cc(-c3nc(C(C)C)cs3)nc2c1C` (stereo not shown) [DP 2], the 50% inhibitory concentration (IC50) – broadly, the concentration at which inhibition is half-maximal – in data set [1] is over 100 µM. Further, in data set [2] (72 h), the viability – broadly, the share of living cells, or the viability signal relative to a control – at 72 h, 0.01 µM came out at 98.5%; the viability at 72 h, 0.1 µM is 98.5%; the viability at 72 h, 1 µM came to 97.4%; the viability at 72 h, 10 µM amounted to 97.1%. Besides, the viability at 72 h, 100 µM in data set [2] (setting [7]) is 95.6%.

For `COc1cccc2c1C(=O)c1c(O)c3c(c(O)c1C2=O)C[C@@](O)(C(=O)CO)C[C@@H]3O[C@H]1C[C@H](N)[C@H](O)[C@H](C)O1` [Doxorubicin, reference compound], the morphological changes entry in data set [3] (0.1 μM) is “no occurrence of morphological changes”. In addition, half-maximal inhibition in data set [1] (IC50) required 1.4 µM. Further, in data set [2] (72 h), the viability at 72 h, 0.01 µM came to 99.5%; the viability at 72 h, 0.1 µM came to 98.4%; the viability at 72 h, 1 µM was 59.9%; the viability at 72 h, 10 µM came to 15.5%. The viability at 72 h, 100 µM in data set [2] (setting [7]) came to 3.29%.

In the case of `COc1ccc2c(OC3C[C@H]4C(=O)OC(=O)[C@@H]4C3)cc(-c3nc(C(C)C)cs3)nc2c1C` [DP 1], the IC50 in data set [1] is over 100 µM. Moreover, in data set [2] (72 h), the viability at 72 h, 0.01 µM was 98.7%; the viability at 72 h, 0.1 µM stood at 96.5%; the viability at 72 h, 1 µM came out at 95.6%; the viability at 72 h, 10 µM was 95.2%. In data set [2] (setting [7]), the viability at 72 h, 100 µM was determined as 92.9%.

As to `CN1CCCCC=CC2CC2(C(=O)NS(=O)(=O)C2CC2)NC(=O)C2CC(O)CC2C1=O` (stereo not shown) [DP 3], the morphological changes result in data set [3] (100 μM) was “slight changes”. Also, the IC50 in data set [1] is over 100 µM. In data set [2] (72 h), the viability at 72 h, 0.01 µM came to 97.7%; the viability at 72 h, 0.1 µM worked out at 97.6%; the viability at 72 h, 1 µM was 93.4%; the viability at 72 h, 10 µM came to 91.1%. Further, in data set [2] (setting [7]), the viability at 72 h, 100 µM was found to be 90.9%. The viability at 72 h, 100 µM in data set [2] (single replicate, read-out: cell viability in one of the replicates) was determined as 89.9%.

Consider `COc1ccc2c(O[C@@H]3C[C@H]4C(=O)N[C@]5(C(=O)NS(=O)(=O)C6CC6)C[C@H]5/C=C\CCCCN(C)C(=O)[C@@H]4C3)cc(-c3nc(C(C)C)cs3)nc2c1C` [Simeprevir], for which, in data set [4] (0.5 M HCl at 100 °C, 5 hours), the “% Degradation, acidic degradation” value was determined as 26.63%. Besides, the “% Degradation, alkaline degradation” value in data set [4] (1 M NaOH at 100 °C, 5 hours) is “No degradation”. Further, the “% Degradation, oxidative degradation” value in data set [4] (3% w/v H2O2 at 100 °C, 5 hours) is listed as 21.87%. Moreover, the “% Degradation, thermal degradation” value in data set [4] (Oven at 100 °C, 10 hours) is on record as “No degradation”. For the same molecule, the pKa – broadly, the pH at which an ionisable group is half protonated – in data set [5] is listed as 5.9. Further, the “degradation percentage, basic hydrolysis” value in data set [6] (0.1 N NaOH for 3 hours at room temperature, ref 18 (Attia et al.)) is listed as 35.55%; in data set [6] (1 M NaOH for 2 hours at 60 °C, ref 27 (Mohammed et al.)) it was 39.80%.

Take `COc1ccc2ccc(-c3scc(C(C)C)[n+]3[O-])[n+]([O-])c2c1C` [DP 5]: the IC50 in data set [1] was over 100 µM. Also, in data set [2] (72 h), the viability at 72 h, 0.01 µM turned out to be 96.3%; the viability at 72 h, 0.1 µM was found to be 96.8%; the viability at 72 h, 1 µM was 93.7%; the viability at 72 h, 10 µM was 93%. Moreover, the viability at 72 h, 100 µM in data set [2] (setting [7]) came out at 92.5%.

`COc1ccc2ccc(-c3scc(C(C)C)[n+]3[O-])[n+]([O-])c2c1CO` [DP 4]: in data set [1], the IC50 was over 100 µM. For the same molecule, in data set [2] (72 h), the viability at 72 h, 0.01 µM amounted to 96.1%; the viability at 72 h, 0.1 µM was 93.9%; the viability at 72 h, 1 µM came out at 93.1%; the viability at 72 h, 10 µM amounted to 92.1%. In addition, in data set [2] (setting [7]), the viability at 72 h, 100 µM is 92.7%.
